# According to patent publication US12435060B2, “Acylamino bridged heterocyclic compound, and composition and application thereof” (BEIJING SCITECH-MQ PHARMACEUTICALS LIMITED, priority 2019, dated 2025):
# System: HT29 cells
# Assay: Inhibition of cell necrosis (CCK8 method), induced programmed necrosis of HT29 cells
# Format: cell-based
# Conditions: Homo sapiens, HT-29; rescue from necrosis induced by TNF-α 20 ng/mL, AT-406 1 μM, Z-VAD-FMK 20 μM; 16-20 hours; CCK-8, OD 450 nm
# How it was run: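 Rescue from programmed necrosis was scored by CCK-8 absorbance at 450 nm after 16-20 h of TNF-α (20 ng/mL), AT-406 (1 μM) and Z-VAD-FMK (20 μM) at 37 °C, 5% CO2. HT29 cells had received compound 30 min earlier across nine 4-fold dilutions (top 25000 nM final). IC50 came from % inhibition relative to uninduced and induced-only wells.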
row,SMILES,IC50
1,"Cc1cnc(NC(=O)c2nnc(Cc3ccccc3F)[nH]2)cc1-c1cc(OCCCC(C)(C)O)ccc1F [Example 322, N-(4-(2-fluoro-5-((4-hydroxy-4-methylpentyl)oxy)phenyl)-5-methylpyridin-2-yl)-5-(2-fluorobenzyl)-4H-1,2,4-triazole-3-carboxamide]",100 to 1000 nM
2,"CCC(O)(CC)CCCOc1ccc(F)c(-c2cc(NC(=O)c3nnc(Cc4ccccc4F)[nH]3)ncc2Cl)c1 [Example 323, N-(5-chloro-4-(5-((4-ethyl-4-hydroxyhexyl)oxy)-2-fluorophenyl)pyridin-2-yl)-5-(2-fluorobenzyl)-4H-1,2,4-triazole-3-carboxamide]",100 to 1000 nM
3,"CCC(O)(CC)CCCOc1ccc(F)c(-c2cc(NC(=O)c3nnc(CC4CCCCC4)[nH]3)ncc2Cl)c1 [Example 324, 5-(cyclohexylmethyl)-N-(5-chloro-4-(5-((4-ethyl-4-hydroxyhexyl)oxy)-2-fluorophenyl)pyridin-2-yl)-4H-1,2,4-triazole-3-carboxamide]",100 to 1000 nM
4,"CC(C)(O)CCCCOc1ccc(F)c(-c2cc(NC(=O)c3nnc(Cc4ccccc4F)[nH]3)ncc2Cl)c1 [Example 325, N-(5-chloro-4-(2-fluoro-5-((5-hydroxyl-5-methylhexyl)oxy)phenyl)pyridin-2-yl)-5-(2-fluorobenzyl)-4H-1,2,4-triazole-3-carboxamide]",100 to 1000 nM
5,"CC(C)(O)CCCCOc1ccc(F)c(-c2cc(NC(=O)c3nnc(CC4CCCCC4)[nH]3)ncc2Cl)c1 [Example 326, 5-(cyclohexylmethyl)-N-(5-chloro-4-(2-fluoro-5-((5-hydroxyl-5-methylhexyl)oxy)phenyl)pyridin-2-yl)-4H-1,2,4-triazole-3-carboxamide]",100 to 1000 nM
6,"O=C(Nc1cc(-c2cc(OCC3CCOCC3)ccc2F)c(F)cn1)c1nnc(Cc2ccccc2F)[nH]1 [Example 327, N-(5-fluoro-4-(2-fluoro-5-((tetrahydro-2H-pyran-4-yl)methoxy)phenyl)pyridin-2-yl)-5-(2-fluorobenzyl)-4H-1,2,4-triazole-3-carboxamide]",≤ 100 nM
7,"O=C(Nc1cc(-c2cc(OCC3CCOCC3)ccc2F)c(F)cn1)c1nnc(CC2CCCCC2)[nH]1 [Example 328, 5-(cyclohexylmethyl)-N-(5-fluoro-4-(2-fluoro-5-((tetrahydro-2H-pyran-4-yl)methoxy)phenyl)pyridin-2-yl)-4H-1,2,4-triazole-3-carboxamide]",≤ 100 nM
8,"O=C(Nc1cc(-c2cc(OCC3CCOCC3)ccc2F)c(Cl)cn1)c1nnc(Cc2ccccc2F)[nH]1 [Example 329, N-(5-chloro-4-(2-fluoro-5-((tetrahydro-2H-pyran-4-yl)methoxy)phenyl)pyridin-2-yl)-5-(2-fluorobenzyl)-4H-1,2,4-triazole-3-carboxamide]",100 to 1000 nM
9,"O=C(Nc1cc(-c2cc(OCC3CCOCC3)ccc2F)c(Cl)cn1)c1nnc(CC2CCCCC2)[nH]1 [Example 330, 5-(cyclohexylmethyl)-N-(5-chloro-4-(2-fluoro-5-((tetrahydro-2H-pyran-4-yl)methoxy)phenyl)pyridin-2-yl)-4H-1,2,4-triazole-3-carboxamide]",100 to 1000 nM
10,"Cc1cnc(NC(=O)c2nnc(Cc3ccccc3F)[nH]2)cc1-c1cc(OCC2CCOCC2)ccc1F [Example 331, N-(4-(2-fluoro-5-((tetrahydro-2H-pyran-4-yl)methoxy)phenyl)-5-methylpyridin-2-yl)-5-(2-fluorobenzyl)-4H-1,2,4-triazole-3-carboxamide]",1000 to 10000 nM
11,"Cc1cnc(NC(=O)c2nnc(CC3CCCCC3)[nH]2)cc1-c1cc(OCC2CCOCC2)ccc1F [Example 332, 5-(cyclohexylmethyl)-N-(4-(2-fluoro-5-((tetrahydro-2H-pyran-4-yl)methoxy)phenyl)-5-methylpyridin-2-yl)-4H-1,2,4-triazole-3-carboxamide]",1000 to 10000 nM
12,"O=C(Nc1cc(-c2cc(OCCC3CCOCC3)ccc2F)c(Cl)cn1)c1nnc(Cc2ccccc2F)[nH]1 [Example 333, N-(5-chloro-4-(2-fluoro-5-(2-(tetrahydro-2H-pyran-4-yl)ethoxy)phenyl)pyridin-2-yl)-5-(2-fluorobenzyl)-4H-1,2,4-triazole-3-carboxamide]",100 to 1000 nM
13,"O=C(Nc1cc(-c2cc(OCCC3CCOCC3)ccc2F)c(Cl)cn1)c1nnc(CC2CCCCC2)[nH]1 [Example 334, N-(5-chloro-4-(2-fluoro-5-(2-(tetrahydro-2H-pyran-4-yl)ethoxy)phenyl)pyridin-2-yl)-5-(cyclohexylmethyl)-4H-1,2,4-triazole-3-carboxamide]",100 to 1000 nM
14,"Cc1cnc(NC(=O)c2nnc(Cc3ccccc3F)[nH]2)cc1-c1cc(OCCC2CCOCC2)ccc1F [Example 335, N-(4-(2-fluoro-5-(2-(tetrahydro-2H-pyran-4-yl)ethoxy)phenyl)-5-methylpyridin-2-yl)-5-(2-fluorobenzyl)-4H-1,2,4-triazole-3-carboxamide]",1000 to 10000 nM
15,"Cc1cnc(NC(=O)c2nnc(CC3CCCCC3)[nH]2)cc1-c1cc(OCCC2CCOCC2)ccc1F [Example 336, 5-(cyclohexylmethyl)-N-(4-(2-fluoro-5-(2-(tetrahydro-2H-pyran-4-yl)ethoxy)phenyl)-5-methylpyridin-2-yl)-4H-1,2,4-triazole-3-carboxamide]",1000 to 10000 nM
16,"CC(C)(O)CCCOc1ccc(Cl)c(-c2ccnc(NC(=O)c3nnc(Cc4ccccc4)[nH]3)c2)c1 [Example 337, 5-benzyl-N-(4-(5-((4-hydroxy-4-methylpentyl)oxy)-2-chlorophenyl)pyridin-2-yl)-4H-1,2,4-triazole-3-carboxamide]",≤ 100 nM
17,"CC(C)(O)CCCOc1ccc(Cl)c(-c2ccnc(NC(=O)c3nnc(Cc4ccccc4F)[nH]3)c2)c1 [Example 338, N-(4-(2-chloro-5-((4-hydroxy-4-methylpentyl)oxy)phenyl)pyridin-2-yl)-5-(2-fluorobenzyl)-4H-1,2,4-triazole-3-carboxamide]",≤ 100 nM
18,"CC(C)(O)CCCOc1ccc(Cl)c(-c2ccnc(NC(=O)c3nnc(Cc4ccc(F)c(F)c4)[nH]3)c2)c1 [Example 339, N-(4-(2-chloro-5-((4-hydroxy-4-methylpentyl)oxy)phenyl)pyridin-2-yl)-5-(3,4-difluorobenzyl)-4H-1,2,4-triazole-3-carboxamide]",100 to 1000 nM
19,"CC(C)(O)CCCOc1ccc(Cl)c(-c2ccnc(NC(=O)c3nnc(Cc4cc(Cl)ccc4F)[nH]3)c2)c1 [Example 340, 5-(5-chloro-2-fluorobenzyl)-N-(4-(2-chloro-5-((4-hydroxy-4-methylpentyl)oxy)phenyl)pyridin-2-yl)-4H-1,2,4-triazole-3-carboxamide]",100 to 1000 nM
20,"CC(C)(O)CCCOc1ccc(Cl)c(-c2ccnc(NC(=O)c3nnc(Cc4cc(F)cc(Cl)c4)[nH]3)c2)c1 [Example 341, N-(4-(2-chloro-5-((4-hydroxy-4-methylpentyl)oxy)phenyl)pyridin-2-yl)-5-(3-chloro-5-fluorobenzyl)-4H-1,2,4-triazole-3-carboxamide]",100 to 1000 nM
21,"CC(C)(O)CCCOc1ccc(Cl)c(-c2ccnc(NC(=O)c3nnc(Cc4ccc(F)c(Cl)c4)[nH]3)c2)c1 [Example 342, 5-(3-chloro-4-fluorobenzyl)-N-(4-(2-chloro-5-((4-hydroxy-4-methylpentyl)oxy)phenyl)pyridin-2-yl)-4H-1,2,4-triazole-3-carboxamide]",100 to 1000 nM
22,"COc1cc(Cc2nnc(C(=O)Nc3cc(-c4cc(OCCCC(C)(C)O)ccc4Cl)ccn3)[nH]2)ccc1F [Example 343, N-(4-(2-chloro-5-((4-hydroxy-4-methylpentyl)oxy)phenyl)pyridin-2-yl)-5-(4-fluoro-3-methoxybenzyl)-4H-1,2,4-triazole-3-carboxamide]",1000 to 10000 nM
23,"Cc1cc(F)cc(Cc2nnc(C(=O)Nc3cc(-c4cc(OCCCC(C)(C)O)ccc4Cl)ccn3)[nH]2)c1 [Example 344, N-(4-(2-chloro-5-((4-hydroxy-4-methylpentyl)oxy)phenyl)pyridin-2-yl)-5-(3-fluoro-5-methylbenzyl)-4H-1,2,4-triazole-3-carboxamide]",100 to 1000 nM
24,"Cc1cc(Cc2nnc(C(=O)Nc3cc(-c4cc(OCCCC(C)(C)O)ccc4Cl)ccn3)[nH]2)ccc1F [Example 345, N-(4-(2-chloro-5-((4-hydroxy-4-methylpentyl)oxy)phenyl)pyridin-2-yl)-5-(4-fluoro-3-methylbenzyl)-4H-1,2,4-triazole-3-carboxamide]",100 to 1000 nM
25,"CC(C)(O)CCCOc1ccc(Cl)c(-c2ccnc(NC(=O)c3nnc(Cc4cccc(C(F)(F)F)c4F)[nH]3)c2)c1 [Example 346, N-(4-(2-chloro-5-((4-hydroxy-4-methylpentyl)oxy)phenyl)pyridin-2-yl)-5-(2-fluoro-3-(trifluoromethyl)benzyl)-4H-1,2,4-triazole-3-carboxamide]",100 to 1000 nM
26,"CC(C)(O)CCCOc1ccc(Cl)c(-c2ccnc(NC(=O)c3nnc(Cc4cc(C(F)(F)F)ccc4F)[nH]3)c2)c1 [Example 347, N-(4-(2-chloro-5-((4-hydroxy-4-methylpentyl)oxy)phenyl)pyridin-2-yl)-5-(2-fluoro-5-(trifluoromethyl)benzyl)-4H-1,2,4-triazole-3-carboxamide]",100 to 1000 nM
27,"CC(C)(O)CCCOc1ccc(Cl)c(-c2ccnc(NC(=O)c3nnc(Cc4cc(F)cc(C(F)(F)F)c4)[nH]3)c2)c1 [Example 348, N-(4-(2-chloro-5-((4-hydroxy-4-methylpentyl)oxy)phenyl)pyridin-2-yl)-5-(3-fluoro-5-(trifluoromethyl)benzyl)-4H-1,2,4-triazole-3-carboxamide]",1000 to 10000 nM
28,"CC(C)(O)CCCOc1ccc(Cl)c(-c2ccnc(NC(=O)c3nnc(Cc4ccc(F)c(C(F)(F)F)c4)[nH]3)c2)c1 [Example 349, N-(4-(2-chloro-5-((4-hydroxy-4-methylpentyl)oxy)phenyl)pyridin-2-yl)-5-(4-fluoro-3-(trifluoromethyl)benzyl)-4H-1,2,4-triazole-3-carboxamide]",> 10000 nM
